Patent US20260256751A1, “COMBINATION OF BETA-2-ADRENERGIC RECEPTOR AGONISTS AND GLP-1 RECEPTOR AGONISTS FOR USE IN TREATING HYPERGLYCAEMIA” (ATROGI AB, priority 2023, published 2026)

How the values were obtained:
[1] = system: differentiated L6-myotubes; assay: Glucose uptake screen (Biological example 1 of WO 2019/053427); format: cell-based; settings: compound at 10 μM, activity relative to isoproterenol at 10 μM, read-out: Biological example 1 of WO 2019/053427 (GU)
Procedure: (§1) Compounds described in publications referenced and incorporated herein were screened in accordance with the procedures outlined in Biological example 1 and Biological example 2 of WO 2019/053427.
L6-myoblasts were grown in Dulbecco's Modified Eagle's Medium (DMEM) containing 1 g/L glucose supplemented with 10% fetal bovine serum (FBS), 2 mM L-glutamine, 50 U/mL penicillin, […] streptomycin and 10 mM HEPES. Cells were plated at 1x 10^5 cells per mL in 24-well plates. After reaching 90% confluence the cells were grown in medium containing 2% FBS for 7 days where upon cells differentiated into myotubes. The differentiated L6-myotubes were serum-starved overnight in medium containing 0.5% fatty-acid free BSA and stimulated with Compound A at a final concentration of 1×10^−5 M in the presence of the selective β2-adrenergic receptor antagonist ICI-118551. After 1 h 40 min the cells were washed with warm, glucose free medium twice and another portion of agonist was added to the glucose free medium. After another 20 min of incubation the cells were exposed to 50 nM ^3H-2-deoxyglucose for 10 min before washed in ice cold glucose free medium three times and lysed in 400 µl/well 0.2 M NaOH for 1 h at 60° C. The cell lysate was mixed with 4 ml scintillation buffer (Emulsifier Safe, Perkin Elmer) and the radioactivity was detected in a P-counter (Tri-Carb 4810TR, Perkin Elmer).

[2] = system: differentiated L6-myotubes; assay: cAMP production relative to isoprenaline (Biological example 2 of WO 2019/053427); format: cell-based; settings: 0.25 h, compound at 10 μM, activity relative to isoproterenol at 10 μM
Excerpt: For example, the level of cAMP production induced by a given compound can be determined by reference to the amount induced by a defined concentration of that compound relative to that induced by the same concentration of a reference compound, such as isoprenaline, using techniques known to those skilled in the art (e.g. following the protocol as described in the biological examples provided in WO 2019/053427, i.e. in cells, such as differentiated L6-myotubes, having been stimulated with isoprenaline or the compound with a final concentration of 1×10^−5 M, for 15 min in stimulation buffer, such as HBSS supplemented with 1% BSA, 5 mM HEPES and 1 mM IBMX, at pH 7.4).
as §1

Row | SMILES | Emax at 10 µM [1] [%] | Emax at 10 µM [2] [%]
1 | CC(=O)N[C@H]1CC[C@@H](CC(C)(C)NC[C@H](O)c2cccc(C#N)n2)CC1 [Compound 421, N-[(1R,4s)-4-{2-[(S)-2-(6-cyano-2-pyridyl)-2-hydroxyethylamino]-2-methylpropyl}cyclohexyl]acetamide] | > 75 | < 25
2 | CNS(=O)(=O)[C@H]1CC[C@@H](CC(C)(C)NC[C@H](O)c2cncc(F)c2)CC1 [Compound 495, (R)-2-{1,1-dimethyl-2-[(1s,4S)-4-(methylaminosulfonyl)cyclohexyl]ethylamino}-1-(5-fluoro-3-pyridyl)-1-ethanol] | 50 to 75 | < 25
3 | CC(=O)N(Cc1ccccc1)[C@H]1CC[C@@H](C[C@@H]2CC[C@H]([C@H](O)c3cccc(F)c3)N2)CC1 [Compound 479, N-[(1R,4s)-4-({(2S,5R)-5-[(S)-(m-fluorophenyl)hydroxymethyl]-2-pyrrolidinyl}methyl)cyclohexyl]-N-benzylacetamide] | < 25 | < 25
4 | CCC[C@H]1CCC[C@H]([C@@H](O)c2cccc(F)c2)N1 [Compound 70, (S)-[(2R,6S)-6-propyl-2-piperidyl](m-fluorophenyl)methanol] | 50 to 75 | < 25
5 | CC12CCC([C@H](O)c3ccccc3Cl)(CC1)N2 [Compound 195, (R)-(o-chlorophenyl)(4-methyl-7-azabicyclo[2.2.1]hept-1-yl)methanol] | > 75 | < 25
6 | CC12CCC([C@H](O)c3cccc(F)c3)(CC1)N2 [Compound 179, (R)-(m-fluoropehnyl)(4-methyl-7-azabicyclo[2.2.1]hept-1-yl)methanol] | 50 to 75 | < 25
7 | CC(=O)N(C)[C@H]1CC[C@@H](CC(C)(C)NC[C@H](O)c2cncc(F)c2)CC1 [Compound 507, N-[(1S,4s)-4-{2-[(R)-2-(5-fluoro-3-pyridyl)-2-hdyroxyethylamino]-2-methylpropyl}cyclohexyl]-n-methylacetamide] | 50 to 75 | < 25
8 | CS(=O)(=O)N[C@H]1CC[C@@H](CNC[C@H](O)c2cccc(F)c2)CC1 [Compound 312, (R)-1-(m-fluorophenyl)-2-({[(1s,4S)-4-(mesylamino)cyclohexyl]methyl}amino)-1-ethanol] | 50 to 75 | < 25
9 | CC(C)(C[C@H]1CC[C@H](NC(=O)C(F)(F)F)CC1)NC[C@H](O)c1cccc(F)c1 [Compound 433, N-[(1R,4r)-4-{2-[(R)-2-(m-fluorophenyl)-2-hydroxyethylamino]-2-methylpropyl}cyclohexyl]trifluoroacetamide] | > 75 | 25 to 50
10 | CC1(C)C[C@H]([C@H](O)c2cncc(F)c2)N1 [Compound 214, (R)-[(R)-4,4-dimethyl-2-azetidinyl](5-fluoro-3-pyridyl)methanol] | > 75 | < 25
11 | CN([C@H]1CC[C@H](CC(C)(C)NC[C@H](O)c2cncc(F)c2)CC1)S(C)(=O)=O [Compound 521, (R)-2-{1,1-dimethyl-2-[(1r,4R)-4-(N-mesyl-N-methylamino)cyclohexyl]ethylamino}-1-(5-fluoro-3-pyridyl)-1-ethanol] | 50 to 75 | < 25
12 | CS(=O)(=O)N[C@H]1CC[C@@H](C[C@@H]2CC[C@H]([C@@H](O)c3cccc(F)c3)N2)CC1 [Compound 511, (S)-[(2R,5S)-5-{[(1s,4R)-4-(mesylamino)cyclohexyl]methyl}-2-pyrrolidinyl](m-fluorophenyl)methanol] | 25 to 50 | < 25
13 | CC12CCC([C@H](O)c3ccccc3F)(CC1)N2 [Compound 181, (R)-(o-fluorophenyl)(4-methyl-7-azabicyclo[2.2.1]hept-1-yl)methanol] | > 75 | < 25
14 | CC(C)(C)CNC[C@H](O)c1cccc(F)c1 [Compound 117, (R)-1-(m-flurophenyl)-2-(neopentylamino)-1-ethanol] | 25 to 50 | < 25
15 | CO[C@H]1CC[C@H](CNC[C@H](O)c2cccc(F)c2)CC1 [Compound 228, (R)-1-(m-fluorophenyl)-2-({[(1r,4R)-4-methoxycyclohexyl]meth-yl}amino)-1-ethanol] | 50 to 75 | < 25
16 | CCCCNCC(O)c1ccc(O)cc1 (stereo not shown) [Compound 1, 2-(butylamino)-1-(p-hydroxyphenyl)-1-ethanol] | > 75 | < 25

Row | SMILES | Emax at 10 µM [1] [%] | Emax at 10 µM [2] [%]
17 | O[C@@H](CNCC[C@H]1CC[C@H](O)CC1)c1cccc(F)c1 [Compound 298, (R)-1-(m-fluorophenyl)-2-{2-[(1r,4R)-4-hydroxycyclohexyl]ethylamino}-1-ethanol] | 25 to 50 | < 25
18 | CC(=O)N(Cc1ccccc1)[C@H]1CC[C@H](C[C@@H]2CC[C@H]([C@H](O)c3cccc(F)c3)N2)CC1 [Compound 482, N-[(1S,4r)-4-({(2S,5R)-5-[(R)-(m-fluorophenyl)hydroxymethyl]-2-pyrrolidinyl}methyl)cyclohexyl]-N-benzylacetamide] | < 25 | < 25
19 | CC(C)(CC[C@H]1CC[C@@H](C(=O)O)CC1)NC[C@H](O)c1cccc(F)c1 [Compound 352, (1S,4s)-4-{3-[(R)-2-(m-fluorophenyl)-2-hydroxyethylamino]-3-methylbutyl}cyclohexanecarboxylc acid] | 25 to 50 | < 25
20 | CCCCCCCCNCC(O)c1ccc(O)cc1 (stereo not shown) [Compound 18, 1-(p-hydroxyphenyl)-2-(octylamino)-1-ethanol] | 25 to 50 | < 25
21 | CC(=O)N[C@H]1CC[C@H](C[C@@H]2CC[C@H]([C@H](O)c3cccc(F)c3)N2)CC1 [Compound 485, N-[(1S,4r)-4-({(2S,5R)-5-[(R)-(m-fluorophenyl)hydroxymethyl]-2-pyrrolidinyl}methyl)cyclohexyl]acetamide] | 50 to 75 | < 25
22 | CC(C)(C)NC[C@H](O)c1ncccc1Cl [Compound 146, (S)-2-(tert-butylamino)-1-(3-chloro-2-pyridyl)-1-ethanol] | 25 to 50 | < 25
23 | CO[C@H]1CC[C@@H](CCNC[C@H](O)c2cncc(F)c2)CC1 [Compound 238, (R)-1-(5-fluoro-3-pyridyl)-2-{2-[(1s,4S)-4-methoxycyclohexyl]ethyl-amino}-1-ethanol] | > 75 | < 25
24 | CCCCNCC(O)c1cccc(Cl)c1 (stereo not shown) [Compound 2, 2-(butylamino)-1-(m-chlorophenyl)-1-ethanol] | 25 to 50 | < 25
25 | CC(C)(C)NC[C@H](O)c1cccc(N)c1F [Compound 91, (R)-1-(3-amino-2-fluorophenyl)-2-(tert-butylamino)-1-ethanol] | > 75 | 25 to 50
26 | Cc1ncccc1[C@@H](O)CNC(C)(C)C[C@H]1CC[C@H](NS(C)(=O)=O)CC1 [Compound 435, (R)-2-{1,1-dimethyl-2-[(1r,4R)-4-(mesylamino)cyclohexyl]ethylamino}-1-(2-methyl-3-pyridyl)-1-ethanol] | 25 to 50 | < 25
27 | O[C@H](c1cccc(F)c1)[C@H]1CC[C@@H](Cc2ccc(Cl)cc2)N1 [Compound 392, (R)-{(2R,5S)-5-[(p-chlorophenyl)methyl]-2-pyrrolidinyl}(m-fluorophenyl)methanol] | > 75 | < 25
28 | O[C@@H](CNC[C@H]1CC[C@@H](OCc2ccccc2)CC1)c1cncc(F)c1 [Compound 263, (R)-1-(5-fluoro-3-pyridyl)-2-({[(1s,4S)-4-(benzyloxy)cyclohexyl]methyl}amino)-1-ethanol] | > 75 | < 25
29 | CC(C)(NC[C@H](O)c1cccc(F)c1)[C@H]1CC[C@H](NS(C)(=O)=O)CC1 [Compound 385, (R)-1-(m-fluorophenyl)-2-{1-methyl-1-[(1r,4R)-4-(mesylamino)cyclohexyl]ethylamino}-1-ethanol] | 50 to 75 | < 25
30 | CC1(C)CCC[C@H]([C@H](O)c2ccccc2Cl)N1 [Compound 162, (R)-[(R)-6,6-dimethyl-2-piperidyl](o-chlorophenyl)methanol] | 25 to 50 | < 25
31 | CC(C)(C[C@H]1CC[C@@H](NC(=O)OC(C)(C)C)CC1)NC[C@H](O)c1cncc(F)c1 [Compound 469] | > 75 | < 25
32 | CCCC1(CCC)CC[C@H]([C@H](O)c2cccc(F)c2)N1 [Compound 159, (R)-[(R)-5,5-dipropyl-2-pyrrolidinyl](m-fluorophenyl)methanol] | 50 to 75 | < 25
